One experiment deals with Candida parapsilosis. Description: Microdilution broth assay. It is filed as cell-based. The settings on record: Lodderomyces parapsilosis; strain MY 1010; 35° C., 24 to 48 hours; read-out: MIC (minimum inhibitory concentration). How it is done: (§1) The broad spectrum antifungal activity of the present compounds was further determined by broth dilution methods. The compounds are particularly active towards filamentous fungi and yeasts including Candida albicans and Crypt. neoformans. The sensitivity of filamentous fungi and yeasts was determined using inhibitor dilution assays in microtiter format. A standardized spore suspension for testing the filamentous fungi was prepared by inoculating sterile distilled water with spores such that 1.5-7.5×10^3 colony forming units were added per well. The microtiter wells were filled with 75 μl of yeast nitrogen base containing 1% Dextrose medium (YNB/D) containing compound. Fifty μl of inoculated YNB/D medium was then added to the wells.
(§2) The sensitivity of yeasts was determined by inoculating sterile distilled water with aliquots of a 4-hour yeast culture grown in Yeast Morphology (YM) media at 35° C. and diluting in YNB/D to yield a final concentration of 1.5-7.5×10^3 colony forming units/well. Seventy-five μl of inoculated media was added per well. To test the sensitivity of yeast, compound was solubilized in 10 percent aqueous DMSO at 2.56 mg/ml. The compound was diluted serially in YNB/D from 128 to 0.06 μg/ml. The wells were filled with 75 μl of drug containing media. […] Representative of the antifungal activity are the minimum inhibitory concentration and minimum fungicidal concentration data shown below in Table II: […]
On the technique in general: Broth dilution looks for growth in wells or tubes with falling amounts of substance.

A further experiment relates to T. mentagrophytes. In words: Microdilution broth assay. Type of experiment: cell-based. The settings on record: Trichophyton mentagrophytes; strain MF 4864; 35° C., 48-72 hours; read-out: MIC (minimum inhibitory concentration). How it is done:
as §1, §2

Values after ≈ are worked out from the molar mass of the structure shown.

For `CC(/C=C/C=C(\C)C(O)C(C)C(=O)O[C@H]1C[C@H](C)C=C2C=C[C@@]3(C)O[C@@H](O)CC(=O)[C@]3(C)[C@H]21)=C\C=C\C(=O)O` (some centres unmarked) [Compound A], the MIC stood at 0.25 µg/mL (≈ 0.462 µM) with Candida parapsilosis and 32 µg/mL (≈ 59.2 µM) in the experiment on T. mentagrophytes.

For the origin of these results see patent publication US5244795A, “Processes for preparing cholesterol lowering compounds” (Merck & Co., Inc., priority 1992, dated 1993).
